In publication PMC10180488, “Novel Derivatives of Eugenol as a New Class of PPARγ Agonists in Treating Inflammation: Design, Synthesis, SAR Analysis and In Vitro Anti-Inflammatory Activity” (Molecules, 2023):

Columns and labels:
[1] = target: egg albumin (Gallus gallus, UniProt P01012); assay: Albumin denaturation assay; type: biochemical, hen; details: mean ± SD (n = 3), read-out: Percentage inhibition of denaturation of albumin
Description: Inflammation is accompanied by protein denaturation. Tissue protein denaturation is a well-established cause of Inflammatory illnesses. Inflammatory disorders including rheumatoid arthritis, diabetes, and cancer have been linked to the denaturation of proteins. The ability of a substance to stop proteins from becoming denaturized has a role in the prevention of inflammatory disorders. […] Denaturation of proteins is accomplished by keeping the reaction mixture in a water bath at 70 °C for […].
Minor modifications were made to Mizushima and Kobayashi’s and Sakat et al. methodologies. The reaction mixture containing 0.2 mL of egg albumin (from a fresh hen’s egg) is mixed with 2.8 mL of phosphate-buffered saline (PBS, pH 6.4) and 2 mL of synthesized compounds in varying concentrations. The mixture was then heated at 70 °C for 5 min after being incubated at 37 °C for approximately 15–20 min. After cooling, their absorbance was measured at 660 nm spectrometrically. Three duplicates of the experiment were carried out. […] Percentage inhibition = (OD control − OD sample/OD control) × 100

[2] = test system: human red blood cells (HRBC); assay: HRBC membrane stabilization method; details: for HRBC membrane stabilization (percentage protection against HRBC lysis): mean ± SD (n = 3); for IC50: Homo sapiens, Erythrocyte, read-out: IC50 Values, HRBC membrane stabilization method
Description: The principle of this procedure is to stabilize the membrane of human red blood cells by hypotonic membrane lysis. […] Lysosomal enzyme levels typically decrease as the HRBC membrane is stabilized.
The packed cells in this blood solution were separated after centrifugation at 3000 rpm [41]. The packed cells were cleaned using an isosaline solution, and then, isosaline was used to prepare a 10% v/v suspension. This HRBC suspension was employed to estimate its anti-inflammatory properties. Different concentrations of the synthesized compounds and the reference standard were each combined with 1 mL of phosphate buffer (pH 7.4), 2 mL of hyposaline, and 0.5 mL of HRBC solution. A total of 2.0 mL of distilled water was utilized as the control. The assay mixtures were all centrifuged at 3000 rpm after 30 min of incubation at 37°C. The following formula was used to determine the percentage of stabilized HRBC membranes. Percentage protection= 100 − (OD sample/OD control) × 100

[3] = target: T1, human PPARγ- LBD (Homo sapiens, UniProt P37231); assay: Lanthascreen TR-FRET PPARγ competitive binding assay; details: for IC50: Lanthascreen TR-FRET competitive binding; for Raw Data / Raw Data - Background: TR-FRET
T1 construct: a mixture of a human PPARγ- LBD labelled with glutathione S-transferase (GST)
T1 sequence (P37231 238-503 limits assumed): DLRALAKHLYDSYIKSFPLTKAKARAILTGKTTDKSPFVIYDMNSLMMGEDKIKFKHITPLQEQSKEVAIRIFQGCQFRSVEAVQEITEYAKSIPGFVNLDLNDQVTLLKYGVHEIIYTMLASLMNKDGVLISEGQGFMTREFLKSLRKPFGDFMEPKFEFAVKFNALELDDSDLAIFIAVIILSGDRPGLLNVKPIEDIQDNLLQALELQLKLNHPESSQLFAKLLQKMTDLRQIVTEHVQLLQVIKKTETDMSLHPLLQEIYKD
Description: Using the Lanthasreen TR-FRET assay, the synthesized compounds were first preliminary tested for the PPARγ binding affinity. […] A chemical under test displaces the tracer from PPAR-LBD, which lowers the TR-FRET ratio and decreases the FRET signal Figure 8 [33].
A multimode low-volume proxy plate reader was used to read the plates after one hour of incubation. Then, a mixture of a human PPARγ- LBD labelled with glutathione S-transferase (GST), a fluorescent small pan-PPAR ligand (FluormoneTM Pan-PPAR Green), and terbium-labeled anti-GST antibody was added.

Sequence of egg albumin (P01012 2-386): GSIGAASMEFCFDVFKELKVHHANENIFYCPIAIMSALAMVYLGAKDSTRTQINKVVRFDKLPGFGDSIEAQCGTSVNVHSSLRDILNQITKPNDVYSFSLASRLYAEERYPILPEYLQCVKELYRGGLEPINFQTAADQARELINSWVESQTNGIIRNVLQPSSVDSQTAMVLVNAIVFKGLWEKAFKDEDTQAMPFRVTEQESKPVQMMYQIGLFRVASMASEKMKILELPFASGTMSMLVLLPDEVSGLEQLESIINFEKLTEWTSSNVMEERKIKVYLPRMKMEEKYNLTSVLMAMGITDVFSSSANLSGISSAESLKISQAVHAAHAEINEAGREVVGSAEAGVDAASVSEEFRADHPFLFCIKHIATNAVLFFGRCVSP

SMILES	inhibition at 6.25 µM [1] [%]	inhibition at 12.5 µM [1] [%]	inhibition at 25 µM [1] [%]	inhibition at 50 µM [1] [%]	inhibition at 100 µM [1] [%]	inhibition at 200 µM [1] [%]	inhibition at 400 µM [1] [%]	HRBC membrane stabilization (percentage protection against HRBC lysis) ([2]; 6.25 µM) [%]	HRBC membrane stabilization (percentage protection against HRBC lysis) ([2]; 12.5 µM) [%]	HRBC membrane stabilization (percentage protection against HRBC lysis) ([2]; 25 µM) [%]	HRBC membrane stabilization (percentage protection against HRBC lysis) ([2]; 50 µM) [%]	HRBC membrane stabilization (percentage protection against HRBC lysis) ([2]; 100 µM) [%]	HRBC membrane stabilization (percentage protection against HRBC lysis) ([2]; 200 µM) [%]	HRBC membrane stabilization (percentage protection against HRBC lysis) ([2]; 400 µM) [%]	IC50 [2] [µM]	IC50 [3] [µM]	Raw Data ([3]; 0.0000512 µM) [RLU]	Raw Data - Background ([3]; 0.0000512 µM) [RLU]	Raw Data ([3]; 0.000256 µM) [RLU]	Raw Data - Background ([3]; 0.000256 µM) [RLU]	further results
C=CCc1ccc(OCC(=O)Nc2cccc(C(F)(F)F)c2)c(OC)c1 [Compound 1d, 2-(4-Allyl-2-methoxyphenoxy)-N-[(3-trifluoromethyl)phenyl]acetamide]	4.21 ± 0.37	8.79 ± 0.32	14 ± 0.31	18.8 ± 0.39	32.46 ± 0.32	38.49 ± 0.37	49.09 ± 0.18	8.85 ± 0.36	17.77 ± 0.46	28.72 ± 0.46	34.74 ± 0.56	45.51 ± 0.28	56.45 ± 0.31	67.40 ± 0.28	66.3	6.47	2.02	1.876	2.04	1.881	Raw Data ([3]; 0.00128 µM): 2 RLU; Raw Data - Background ([3]; 0.00128 µM): 1.79 RLU; Raw Data ([3]; 0.0064 µM): 2.061 RLU; Raw Data - Background ([3]; 0.0064 µM): 1.836 RLU; Raw Data ([3]; 0.032 µM): 1.99 RLU; Raw Data - Background ([3]; 0.032 µM): 1.875 RLU; Raw Data ([3]; 0.16 µM): 1.945 RLU; Raw Data - Background ([3]; 0.16 µM): 1.78 RLU; Raw Data ([3]; 0.8 µM): 2.018 RLU; Raw Data - Background ([3]; 0.8 µM): 1.89 RLU; Raw Data ([3]; 4 µM): 1.542 RLU; Raw Data - Background ([3]; 4 µM): 1.307 RLU; Raw Data ([3]; 20 µM): 0.593 RLU; Raw Data - Background ([3]; 20 µM): 0.497 RLU; Raw Data ([3]; 100 µM): 0.6527 RLU; Raw Data - Background ([3]; 100 µM): 0.4876 RLU
C=CCc1ccc(OCC(=O)Nc2cccc(Cl)c2)c(OC)c1 [Compound 1e, 2-(4-Allyl-2-methoxyphenoxy)-N-(3-chlorophenyl)acetamide]	5.49 ± 0.43	9.47 ± 0.39	15.7 ± 0.24	22.35 ± 0.18	38.61 ± 0.3	48.21 ± 0.18	56.62 ± 0.37	12.36 ± 0.48	19.68 ± 0.38	34.50 ± 0.36	42.00 ± 0.56	51.04 ± 0.46	66.05 ± 0.36	75.09 ± 0.36	58.1	11.5	2.087	1.839	1.860	1.610	Raw Data ([3]; 0.00128 µM): 1.903 RLU; Raw Data - Background ([3]; 0.00128 µM): 1.678 RLU; Raw Data ([3]; 0.0064 µM): 1.927 RLU; Raw Data - Background ([3]; 0.0064 µM): 1.692 RLU; Raw Data ([3]; 0.032 µM): 1.988 RLU; Raw Data - Background ([3]; 0.032 µM): 1.752 RLU; Raw Data ([3]; 0.16 µM): 1.922 RLU; Raw Data - Background ([3]; 0.16 µM): 1.688 RLU; Raw Data ([3]; 0.8 µM): 1.820 RLU; Raw Data - Background ([3]; 0.8 µM): 1.683 RLU; Raw Data ([3]; 4 µM): 1.752 RLU; Raw Data - Background ([3]; 4 µM): 1.522 RLU; Raw Data ([3]; 20 µM): 1.018 RLU; Raw Data - Background ([3]; 20 µM): 0.721 RLU; Raw Data ([3]; 100 µM): 0.834 RLU; Raw Data - Background ([3]; 100 µM): 0.586 RLU
C=CCc1ccc(OCC(=O)Nc2ccc([N+](=O)[O-])cc2)c(OC)c1 [Compound 1b, 2-(4-Allyl-2-methoxyphenoxy)-N-(4-nitrophenyl)acetamide]	2.06 ± 0.17	4.44 ± 0.36	8.42 ± 0.24	13.4 ± 0.24	17.6 ± 0.18	21.2 ± 0.3	32.2 ± 0.4	3.19 ± 0.28	9.10 ± 0.28	15.55 ± 0.28	27.49 ± 0.36	36.16 ± 0.48	45.07 ± 0.28	58.36 ± 0.28	83.2	42.4	2.014	1.767	1.849	1.755	Raw Data ([3]; 0.00128 µM): 1.865 RLU; Raw Data - Background ([3]; 0.00128 µM): 1.732 RLU; Raw Data ([3]; 0.0064 µM): 1.857 RLU; Raw Data - Background ([3]; 0.0064 µM): 1.671 RLU; Raw Data ([3]; 0.032 µM): 1.859 RLU; Raw Data - Background ([3]; 0.032 µM): 1.568 RLU; Raw Data ([3]; 0.16 µM): 1.896 RLU; Raw Data - Background ([3]; 0.16 µM): 1.724 RLU; Raw Data ([3]; 0.8 µM): 2.012 RLU; Raw Data - Background ([3]; 0.8 µM): 1.756 RLU; Raw Data ([3]; 4 µM): 1.779 RLU; Raw Data - Background ([3]; 4 µM): 1.596 RLU; Raw Data ([3]; 20 µM): 1.199 RLU; Raw Data - Background ([3]; 20 µM): 1.025 RLU; Raw Data ([3]; 100 µM): 0.421 RLU; Raw Data - Background ([3]; 100 µM): 0.2685 RLU
